Test results from patent US20200147233A1, “METHOD FOR KILLING TUMOR CELLS AND COMPOSITION USED THEREFOR” (PhotoQ3 Inc., priority 2018, published 2020).

Columns and labels:
SAS cells = experiment: Cytotoxicity of AlPcS2a itself (photosensitizer tolerance); format: cell-based; conditions: AlPcS2a alone with light
Experimental: For the purpose of increasing IT-Robo 1 internalization efficiency, the present inventors have used AlPcS2a, which forms reactive oxygen species as a result of light irradiation and induces destruction of endosome. At first, the cytotoxicity of AlPcS2a itself was examined, and the optimal concentration to various cells was then determined.

[1] = system: HSQ-89 cell line xenograft; experiment: Antitumor effects of combined use of IT-Robo1 and PCI on HSQ-89 cell line xenograft mice; format: in vivo
Experimental: A supernatant was aspirated from a 10 cmφ dish, in which the HSQ-89 cell line was cultured, and was then washed with D-PBS (Dulbecco's phosphate buffer). Thereafter, 1 ml of 2.5 g/l trypsin/1 mM EDTA solution was added to the resultant, and the obtained mixture was then left at rest for several minutes in a CO2 incubator. After confirming that the cells were peeled from the bottom surface of the dish, 9 ml of the culture solution was added, and centrifugation was then performed at 1,000 rpm at 4° C. for 5 minutes. After that, a supernatant was aspirated, 10 ml of PBS was then added thereto, and the obtained mixture was then centrifuged at 1,000 rpm at 4° C. for 5 minutes. Thereafter, a supernatant was aspirated, 10 ml of PBS was added thereto, and the number of cells was then counted. Again, 10 ml of PBS was added to the cells, and the obtained mixture was then centrifuged at 1,000 rpm at 4° C. for 5 minutes. Thereafter, a supernatant was aspirated, and PBS was added thereto to a cell density of 2×10^7 cell/ml. Basement Membrane Matrix Gel (Corning, N.Y.) that had been cooled on ice was added in an equal amount, and 2×10^6 cells/200 μl were then collected using a 23G needle and a 1-ml syringe that had been cooled on ice. Subsequently, the collected cells were subcutaneously administered (SC) to the right shoulder of 6-weel-old male BALB/cSlc-nu/nu mice to produce xenograft mice (cancer-bearing mice). The size of a tumor was calculated according to the following equation:
Tumor size=π/6×Height (mm)×Width (mm)×Depth (mm) […]
With reference to “Guidelines for Proper Conduct of Animal Experiments (2006)” established by Science Council of Japan, a tumor with a size of 1,000 mm^3 or more, or a drastic reduction in body weight (a reduction of 25% or more of body weight for a week) was set at endpoint, and the mice were euthanized by cervical dislocation. The measurement of a tumor size and evaluation of the body weight were carried out over time, and at the endpoint, the size and weight of the tumor and the body weight were evaluated.

Substance: aluminum phthalocyanine disulfonic acid [AlPcS2a]
- sensitivity of cells to photosensitizer treatment (SAS cells): weak to the treatment with a photosensitizer
- ulcer and crust formation at irradiated site ([1]; about two days after the irradiation): an ulcer was formed at the cancer protrusion site
- edema at irradiated site ([1]; after local irradiation with 650 nm, for several days from the next day, gradually reduced): edema was found at the irradiated sites and the surrounding portions thereof
- time until crust fell off after crust formation ([1]; mouse, in vivo): 10 days
